The text below walks through data of patent US20220018852A1, “METHODS AND KITS FOR DETECTING LIVER DYSFUNCTION IN A SUBJECT” (priority 2018, published 2022).

One assay concerns the target T1, albumin of rats (Rattus norvegicus, UniProt P02770).
T1 construct: The SEB test was performed in the serum of all groups of rats; from tissue; host or cells: serum of male Wistar rats (ethanol-treated and control)
The experiment in a line: SEB test applied to serum of ethanol-treated rats. The note with it: L-thyroxine at 1/5, Au at 1/50. Type of assay: binding.

Assay [1] has as its target T2, HSA (Homo sapiens, UniProt P02768). The experiment in a line: Enhanced binding capacity of serum/HSA: serum of patients with no liver dysfunction spiked with ligand, ultrafiltration, ICP-MS of unbound ligand.
Assay [2] concerns the target T2, HSA. The experiment in a line: SEB test, development cohort: 45 cirrhotic vs 45 control patients. It is filed as binding. To be noted: 45 cirrhotic vs 45 controls.
Assay [3] concerns the target T2, HSA. To be noted: literature [21]; cited from earlier work.
Assay [4] concerns the target T2, HSA. The experiment in a line: Same binding test with Vialebex commercial albumin solution at 200 mg/mL. To be noted: Vialebex commercial solution of pure HSA.
Assay [5] has as its target T2, HSA. The experiment in a line: SEB test, discovery cohort: cirrhotic patients vs patients with no liver dysfunction. The note with it: for sensitivity of discrimination of cirrhotic from control patients / specificity of discrimination of cirrhotic from control patients: discovery cohort, 18 cirrhotic vs 18 controls, HSA/ligand Au 1/100, Cu 1/10, dansylsarcosine 1/5, L-thyroxine 1/10. It is filed as binding.

Values joined by “and” are separate entries in the source; they are usually repeats but may differ in a detail not shown here. Equal entries are not always repeated. Structures can show the parent of a compound that is named as a salt.

T2 sequence (P02768 25-609): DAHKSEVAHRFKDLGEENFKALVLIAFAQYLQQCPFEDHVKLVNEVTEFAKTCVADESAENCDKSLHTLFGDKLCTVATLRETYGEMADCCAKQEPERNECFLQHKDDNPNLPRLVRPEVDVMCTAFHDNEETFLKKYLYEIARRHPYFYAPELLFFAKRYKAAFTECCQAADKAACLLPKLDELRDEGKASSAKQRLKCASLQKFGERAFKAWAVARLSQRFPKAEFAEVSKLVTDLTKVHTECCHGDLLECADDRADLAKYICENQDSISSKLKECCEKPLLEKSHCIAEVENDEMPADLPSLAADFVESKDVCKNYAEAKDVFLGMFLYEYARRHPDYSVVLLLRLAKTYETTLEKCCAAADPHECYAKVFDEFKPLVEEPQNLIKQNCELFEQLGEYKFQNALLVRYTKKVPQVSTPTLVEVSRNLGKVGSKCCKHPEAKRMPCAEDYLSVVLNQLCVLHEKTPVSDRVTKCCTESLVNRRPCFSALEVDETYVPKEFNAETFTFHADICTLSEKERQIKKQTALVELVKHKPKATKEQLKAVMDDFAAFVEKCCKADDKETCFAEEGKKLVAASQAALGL
T1 sequence (P02770 25-608): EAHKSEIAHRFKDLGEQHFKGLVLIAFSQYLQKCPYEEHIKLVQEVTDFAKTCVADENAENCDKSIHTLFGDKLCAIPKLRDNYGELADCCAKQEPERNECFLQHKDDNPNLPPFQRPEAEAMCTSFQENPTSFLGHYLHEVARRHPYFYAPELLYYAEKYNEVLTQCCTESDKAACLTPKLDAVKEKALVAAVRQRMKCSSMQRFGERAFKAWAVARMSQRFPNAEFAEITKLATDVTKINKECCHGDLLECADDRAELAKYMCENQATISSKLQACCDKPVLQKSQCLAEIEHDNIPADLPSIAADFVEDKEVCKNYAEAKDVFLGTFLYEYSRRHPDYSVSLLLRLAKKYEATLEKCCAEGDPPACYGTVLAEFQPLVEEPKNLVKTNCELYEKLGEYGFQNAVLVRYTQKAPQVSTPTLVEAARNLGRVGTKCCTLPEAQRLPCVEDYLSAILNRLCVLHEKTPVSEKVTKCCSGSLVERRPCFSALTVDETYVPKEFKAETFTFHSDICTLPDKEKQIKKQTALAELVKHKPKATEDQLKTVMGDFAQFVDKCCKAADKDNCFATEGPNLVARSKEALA

Take `O.O.O.[Cl][Au]([Cl])[Cl]` [Au, gold(III) chloride trihydrate]: the “SEB test result in rat serum” value on albumin of rats (as soon as D1 (ethanol for 1 day)) was “positive”.
`[Cd]` [Cd]: the “SEB test result in rat serum” value on albumin of rats (group D14 (ethanol for 14 days), Cu, Cd) is reported as “positive”. For the same molecule, at HSA [1] (serum samples, 100% retention), the “atoms bound per molecule of albumin” value is reported as ≤ 50 atoms per molecule of albumin. In addition, the “specificity (Sp)” value on HSA [2] is given as 98%.
`[Cl][Cu][Cl]` [Cu, copper(II) chloride]: at HSA [1] (above 12 Cu atoms per albumin molecule), the “retention when more Cu was added” value was at most 40%. The “Cu atoms per albumin molecule retained on the ultracentrifugation filter” value at HSA [1] (serum of patients with no liver dysfunction, average retention of 95%) is reported as “up to 12 atoms per albumin molecule”. Further, on HSA [1] (up to 12 Cu atoms per albumin molecule), the average retention worked out at 95%. For the same molecule, at HSA [3], the “atoms of Cu HSA is able to bind (reported)” value is reported as “less than 2 atoms”. Moreover, the “specificity (Sp)” value on HSA [2] stood at 98%. In addition, the ligand/HSA retention ratio on HSA [4] was 40. In addition, at HSA [5] (control patients, mean), the “Ratio Cu/HSA, reference value” is on record as 4.3 μM/μg/L. On HSA [5], the “sensitivity of discrimination of cirrhotic from control patients” value is on record as 100% and the “specificity of discrimination of cirrhotic from control patients” value stood at 72%. Moreover, the “Ratio Cu/HSA (ligand in the filtrate / albumin)” value at HSA [5] (individual cirrhotic patients 1-18, one value per patient, HSA/Cu 1/10) was 7.5 μM/μg/L and 4.97 μM/μg/L and 9.33 μM/μg/L and 15.85 μM/μg/L and 5.5 μM/μg/L and 10.45 μM/μg/L and 9.07 μM/μg/L and 6.86 μM/μg/L and 9.64 μM/μg/L and 7.54 μM/μg/L and 6.74 μM/μg/L and 4.76 μM/μg/L and 5.59 μM/μg/L and 8.25 μM/μg/L and 10.68 μM/μg/L and 11.02 μM/μg/L and 5.26 μM/μg/L and 5.56 μM/μg/L. For the same molecule, the “Ratio Cu/HSA (ligand in the filtrate / albumin)” value on HSA [5] (patient 19, NASH without cirrhosis) stood at 5.1 μM/μg/L.
With `CN(C)c1cccc2c(S(=O)(=O)N(C)CC(=O)O)cccc12` [dansylsarcosine, Dansylsarcosine Piperidinium Salt], at HSA [1] (serum samples, 100% retention, L-thyroxine not testable above 1/10 ratio (dissolution problems)), the “molecules bound per molecule of albumin” value is ≤ 2.5 molecules per molecule of albu. The “specificity (Sp)” value on HSA [2] worked out at 98%. At HSA [5] (control patients, mean), the “Ratio DS/HSA, reference value” worked out at 0.23 μM/μg/L. Besides, on HSA [5], the “sensitivity of discrimination of cirrhotic from control patients” value amounted to 100% and the “specificity of discrimination of cirrhotic from control patients” value is recorded as 100%. Further, the “Ratio DS/HSA (ligand in the filtrate / albumin)” value on HSA [5] (individual cirrhotic patients 1-18, one value per patient, HSA/dansylsarcosine 1/5, listed as DS) is 4.77 μM/μg/L and 2.26 μM/μg/L and 5.71 μM/μg/L and 7.58 μM/μg/L and 0.78 μM/μg/L and 16.38 μM/μg/L.
